Laboratory results from patent US5374623A, “Cysteine protease inhibitors effective for in vivo use” (Prototek, Inc., priority 1992, dated 1994).

How the values were obtained:
[1] = tested on: 45Ca2+-labelled bones (calvaria) of neonatal mice; assay: Parathyroid hormone-stimulated 45Ca2+ release from cultured mouse calvaria; assay type: cell-based; details: 24 hour period, PTH-stimulated
Procedure: (§1) Treatment of Osteo Arthritis with Mu-Phe-HPhe-O-Ph. ^45 Ca^2+ -labelled bones (calvaria) of neonatal mice were maintained in culture. The effect of the test compound on the rate of parathyroid hormone-stimulated ^45 Ca^2+ release was measured over a 24 hour period. An inhibitor of bone resorption (at maximal concentrations) would be expected to inhibit this rate by approximately 70%. The nature of the residual, uninhibitable ^45 Ca^2+ -release is not known but could represent chemical exchange of ^45 Ca^2+ with the medium. Mu-Phe-HPhe-O-Ph was dissolved in dimethylsulphoxide which was present in the incubation at concentrations <0.1%.
as §1, with “Mu-Leu-HPhe-O-Ph.” for “Mu-Phe-HPhe-O-Ph.”, “Mu-Leu-HPhe-O-Ph” for “Mu-Phe-HPhe-O-Ph”
as §1, with “Mu-Tyr(OMe)-HPhe-O-Ph.” for “Mu-Phe-HPhe-O-Ph.”, “Mu-Tyr(OMe)-HPhe-O-Ph” for “Mu-Phe-HPhe-O-Ph”
as §1, with “Z-Phe-Ala-O-Ph.” for “Mu-Phe-HPhe-O-Ph.”, “Z-Phe-Ala-O-Ph” for “Mu-Phe-HPhe-O-Ph”
as §1, with “Mu-Tyr(OMe)-HPhe-O-Ph.” for “Mu-Phe-HPhe-O-Ph.”, “labelled” for “-labelled”, “Mu-Tyr(OMe)-HPhe-O-Ph” for “Mu-Phe-HPhe-O-Ph”

[2] = biological target: Soluble extracts of P. falciparum (cysteine proteinase); assay: Proteolytic activity of P. falciparum soluble extracts, substrate Z-Phe-Arg-AFC; assay type: biochemical; details: read-out: IC50, proteolytic activity of P. falciparum extract
Procedure: Soluble extracts of P. falciparum and P. vinckei were prepared and proteolytic activity was assayed with fluorogenic peptide substrate Z-Phe-Arg-AFC. […] The concentrations at which activity was inhibited by 50% (IC50) was calculated.
Soluble extracts of P. falciparum and P. vinckei were prepared and proteolytic activity was assayed with fluorogenic peptide substrate Z-Phe-Arg-AFC. […] The concentration at which activity was inhibited by 50%. (IC50) was calculated.
Soluble extracts of P. falciparum and P. vinckei were prepared and proteolytic activity was assayed with fluorogenic peptide substrate Z-Phe-Arg-AFC. […] The concentration at which activity was inhibited by 50% (IC50) was calculated.
The concentration at which activity was inhibited by 50% (IC50) was calculated.

experimental gingivitis = assay: Experimental gingivitis in human subjects; assay type: in vivo; details: twenty human subjects, inhibitor placed at test sites and sealed with Coe-pak for a week, blind, placebo control
Excerpt: Treatment of Gingivitis with Mu-Phe-HPhe-O-Ph. The effect of the inhibitor on gingival inflammation was studied by investigating its ability to prevent the development of experimental gingivitis. Twenty human subjects with healthy gingiva and no periodontal disease were recruited. The subjects received oral hygiene instruction and scaling prior to baseline. The test sites were the mesibuccal crevices on the upper first and second molars and premolars (bicuspids). Acrylic shields were made to cover the gingival margins of these teeth and were worn during oral hygiene to prevent brushing of the test and control sites. During the test period of three weeks the subjects were told to brush only the lower teeth and upper anteriors and to ear the shields during brushing. The left side was used as the test side and the right was the control side in 10 subjects. The sides were reversed in the other 10 subjects so the subjects could act as their own controls. Thirty second GCF samples were taken prior to clinical measurements at baseline and at 1, 2, 3 and 4 weeks. These were assayed for cathepsins B and L-like activities. Clinical measurements of gingival index (GI), gingival bleeding index (GBI) and plaque index (PLI) were taken at test and control sites at zero, one, two, three and four weeks. […]

## O=C(O)Cc1ccccc1OCC(=O)[C@H](CCc1ccccc1)NC(=O)[C@H](Cc1ccccc1)NC(=O)N1CCOCC1 [Mu-Phe-HPhe-O-Ph, (4-morpholinylcarbonyl)-L-phenylalanyl-L-homophenylalanyl-(2-carboxymethyl)phenoxymethyl ketone]
[1]; 1 μm inhibitor
  inhibition of the rate of 45Ca2+-release: 50%
[1]; 100 μm inhibitor
  additional inhibition of the rate of 45Ca2+-release: 20%
[2]
  IC50: 3 nM
Experimental gingivitis
  GI, GBI, PLI and cysteine proteinase levels at test vs control sites: reduced all parameters tested at the test sites
